Test results from patent US20210196671A1, “COMPOSITIONS COMPRISING 3'-O-METHYL-4'-O-SULFATE EPICATECHIN AND THERAPEUTIC USES OF SUCH COMPOSITIONS” (SOCIÉTÉ DES PRODUITS NESTLÉ S.A., priority 2016, published 2021).

The compounds below were run against T1, h-TRPA1 (Homo sapiens, UniProt O75762) (assay: activation of CHO cells expressing h-TRPA1, calcium imaging). Conditions: concentration (max) tested 1 mM.
T1 construct: expressed in transfected cells; host or cells: CHO cells
Type: cell-based
Experimental: Several epicatechin metabolites were tested in vitro to determine if any of these compounds are an agonist of the cation channel of TRPA1. Specifically, the activation of CHO cells expressing h-TRPA1 was tested according to the calcium imaging method described in Riera et al. (Riera, C. E., Vogel, H., Simon, S. A., Damak, S., & le Coutre, J. Sensory attributes of complex tasting divalent salts are mediated by TRPM5 and TRPV1 channels. J. Neurosci. 29, 2654-2662 (2009)).

T1 sequence (O75762 whole entry): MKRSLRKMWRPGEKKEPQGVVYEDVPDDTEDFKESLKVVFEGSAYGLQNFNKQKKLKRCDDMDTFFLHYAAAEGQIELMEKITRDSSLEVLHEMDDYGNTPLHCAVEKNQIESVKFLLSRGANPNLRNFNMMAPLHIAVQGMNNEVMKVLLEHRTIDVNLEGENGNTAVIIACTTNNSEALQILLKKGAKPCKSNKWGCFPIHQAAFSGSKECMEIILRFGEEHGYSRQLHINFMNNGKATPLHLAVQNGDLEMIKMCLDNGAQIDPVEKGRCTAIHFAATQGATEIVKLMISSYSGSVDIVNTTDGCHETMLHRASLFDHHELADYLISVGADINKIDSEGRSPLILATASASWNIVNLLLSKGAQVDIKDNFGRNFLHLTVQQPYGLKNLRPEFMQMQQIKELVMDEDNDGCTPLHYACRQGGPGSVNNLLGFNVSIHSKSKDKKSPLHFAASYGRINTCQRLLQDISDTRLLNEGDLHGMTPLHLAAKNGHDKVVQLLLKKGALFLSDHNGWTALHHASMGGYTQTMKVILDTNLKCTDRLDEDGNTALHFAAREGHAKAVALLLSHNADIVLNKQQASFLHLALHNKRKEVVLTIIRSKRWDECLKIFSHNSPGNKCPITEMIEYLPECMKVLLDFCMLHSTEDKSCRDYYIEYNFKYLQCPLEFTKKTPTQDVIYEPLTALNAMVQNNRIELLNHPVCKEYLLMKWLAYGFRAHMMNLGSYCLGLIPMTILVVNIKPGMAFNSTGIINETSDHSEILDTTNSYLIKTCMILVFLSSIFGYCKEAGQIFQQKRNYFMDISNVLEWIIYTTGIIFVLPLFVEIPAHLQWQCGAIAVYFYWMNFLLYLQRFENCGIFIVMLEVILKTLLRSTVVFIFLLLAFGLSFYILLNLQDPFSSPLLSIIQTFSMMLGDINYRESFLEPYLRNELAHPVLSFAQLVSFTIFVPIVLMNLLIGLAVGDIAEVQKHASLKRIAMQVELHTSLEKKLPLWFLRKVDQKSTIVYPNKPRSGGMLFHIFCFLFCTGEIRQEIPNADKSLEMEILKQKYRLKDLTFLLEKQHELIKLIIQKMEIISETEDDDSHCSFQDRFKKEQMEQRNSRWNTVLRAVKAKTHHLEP

| Compound | Activity vs hTRPA1 |
| --- | --- |
| COc1cc([C@H]2Oc3cc(O)cc(O)c3C[C@H]2O)ccc1OS(=O)(=O)O [3′-O-methyl-4′-O-sulfate-EC, 3′-O-methyl-4′-O-sulfate epicatechin] | Active |

Same assay, conditions: concentration (max) tested 3 mM

| Compound | Activity vs hTRPA1 |
| --- | --- |
| Hesperetin-7-3-O-Glucuronide | Inactive |
| Hesperetin-4-O-Glucuronide | Inactive |
| COc1ccc(C2CC(=O)c3c(O)cc(O)cc3O2)cc1O[C@@H]1O[C@H](C(=O)O)[C@@H](O)[C@H](O)[C@H]1O (stereo partly drawn) [Hesperetin-3-O-Glucuronide] | Inactive |

Same assay, conditions: concentration (max) tested 100 mM

| Compound | Activity vs hTRPA1 |
| --- | --- |
| COc1cc([C@H]2Oc3cc(OS(=O)(=O)O)cc(O)c3C[C@H]2O)ccc1O [3′-O-methyl-7-O-sulfate-EC] | Inactive |
| O=S(=O)(O)Oc1cc([C@H]2Oc3cc(O)cc(O)c3C[C@H]2O)ccc1O [3′-O-sulfate-EC] | Inactive |
| O=S(=O)(O)Oc1ccc([C@H]2Oc3cc(O)cc(O)c3C[C@H]2O)cc1O [4′-O-sulfate-EC] | Inactive |
| COc1ccc([C@H]2Oc3cc(O)cc(O)c3C[C@H]2O)cc1O [4′-O-methyl-EC] | Inactive |
| COc1cc([C@H]2Oc3cc(O)cc(O)c3C[C@H]2O)ccc1O [3′-O-methyl-EC] | Inactive |
